In article PMC11303535 (Nature Communications, 2024):

What was measured:
hTRPV1 S512F = hTRPV1 S512F (Homo sapiens, UniProt Q8NER1, S512F); test: FLIPR calcium influx assay, hTRPV1 S512F mutant; type: cell-based; details: also unresponsive to pH
hTRPV1 = hTRPV1 (Homo sapiens, UniProt Q8NER1); test: FLIPR calcium influx assay, hTRPV1 WT in HEK293T; type: cell-based; details: 3.33 µM capsaicin
TRPV1 = details: CHL at concentrations up to 250 μM; cited from earlier work

hTRPV1, sequence (Q8NER1 whole entry): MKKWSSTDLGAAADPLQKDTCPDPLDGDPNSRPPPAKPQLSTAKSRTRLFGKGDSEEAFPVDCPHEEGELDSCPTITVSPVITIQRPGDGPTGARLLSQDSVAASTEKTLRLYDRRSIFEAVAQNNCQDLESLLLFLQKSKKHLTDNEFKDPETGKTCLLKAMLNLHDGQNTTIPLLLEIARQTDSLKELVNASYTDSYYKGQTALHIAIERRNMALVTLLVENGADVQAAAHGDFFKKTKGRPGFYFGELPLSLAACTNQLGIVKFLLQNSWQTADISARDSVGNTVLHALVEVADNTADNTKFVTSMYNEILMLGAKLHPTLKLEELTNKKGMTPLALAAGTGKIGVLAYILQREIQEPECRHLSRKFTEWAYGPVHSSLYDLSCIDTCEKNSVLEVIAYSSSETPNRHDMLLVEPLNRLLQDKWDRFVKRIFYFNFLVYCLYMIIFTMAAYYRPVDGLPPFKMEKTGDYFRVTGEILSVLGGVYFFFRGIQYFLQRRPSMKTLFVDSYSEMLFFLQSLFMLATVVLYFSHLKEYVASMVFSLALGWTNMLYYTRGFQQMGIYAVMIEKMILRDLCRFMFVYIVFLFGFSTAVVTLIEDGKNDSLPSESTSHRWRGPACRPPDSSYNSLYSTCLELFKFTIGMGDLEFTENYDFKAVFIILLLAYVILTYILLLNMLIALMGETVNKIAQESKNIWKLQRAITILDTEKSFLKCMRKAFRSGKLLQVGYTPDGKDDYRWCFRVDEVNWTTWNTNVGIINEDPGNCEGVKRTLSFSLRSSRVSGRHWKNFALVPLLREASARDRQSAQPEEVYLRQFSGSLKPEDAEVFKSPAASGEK
hTRPV1 S512F, sequence (Q8NER1 whole entry S512F): as the sequence (Q8NER1 whole entry) above, with S512F counted along it

## COc1cc(CNC(=O)CCCC/C=C/C(C)C)ccc1O [capsaicin]
hTRPV1 S512F
  response of mutant to capsaicin: unresponsive
hTRPV1
  activation of hTRPV1 by capsaicin: 80–90%

## CC(C)CCC[C@@H](C)[C@H]1CC[C@H]2[C@@H]3CC=C4C[C@@H](O)CC[C@]4(C)[C@H]3CC[C@]12C [CHL, cholesterol]
TRPV1
  inhibition of TRPV1 currents evoked by 2-APB: not inhibited
